One test has as its system Naegleria. Description: Displacement of sodium 5-(3-(8-(3-carboxy-N-hydroxyacrylamido)octyl)thioureido)-2-(6-hydroxy-3-oxo-3H-xanthen-9-yl)benzoate from Naegleria Tet-1 at 5 mM incubated for 20 mins followed by sodium 5-(3-(8-(3-carboxy-N-hydroxyacrylamido)octyl)thioureido)-2-(6-hydroxy-3-oxo-3H-xanthen-9-yl)benzoate addition and further incubated 4 hrs and measured upto 20 hrs by competition fluorescence polarization assay. Particulars: time hrs <=20.

A short description of test [1]: Displacement of sodium 5-(3-(8-(3-carboxy-N-hydroxyacrylamido)octyl)thioureido)-2-(6-hydroxy-3-oxo-3H-xanthen-9-yl)benzoate from Naegleria Tet-1 incubated for 20 mins followed by sodium 5-(3-(8-(3-carboxy-N-hydroxyacrylamido)octyl)thioureido)-2-(6-hydroxy-3-oxo-3H-xanthen-9-yl)benzoate addition and further incubated 4 hrs and measured upto 20 hrs by competition fluorescence polarization assay. (In general: Fluorescence polarisation rises when a labelled molecule tumbles more slowly, as on binding a larger partner.)

Test [2] is described as follows: Binding affinity to Naegleria Tet1 assessed as dissociation constant incubated for 4 hrs and measured upto 20 hrs by fluorescence polarization assay.

The source made the active and inactive calls. No cut-off for these calls is given here.

As for `Nc1nc(=O)n([C@H]2C[C@H](O)[C@@H](CO)O2)cc1CO`, the inhibition entry in the test with Naegleria was “inactive”.
For `O=C(O)c1ccnc(C(=O)O)c1`, in test [1], the IC50 (commonly the point on the concentration scale where inhibition reaches its midpoint) turned out to be 27 µM and the affinity corresponds to a Ki of 9 µM.
For the compound `O=C(O)/C=C/C(=O)N(O)CCCCCCCCNC(=S)Nc1ccc(-c2c3ccc(=O)cc-3oc3cc(O)ccc23)c(C(=O)O)c1`, the Kd (in general, a measure of binding affinity in units of concentration) in test [2] is 0.25 µM.
`O=C(O)CC[C@@H](O)C(=O)O`: in test [1], the IC50 turned out to be 5200 µM and the affinity corresponds to a Ki of 1700 µM.
With `O=C(O)CNC(=O)C(=O)O` [N-OXALYLGLYCINE], in test [1], the IC50 was 49 µM; the Ki (commonly the dissociation constant of the complex between target and ligand, obtained from inhibition or displacement) is 16 µM.
In test [1], `O=C(O)CCC(=O)C(=O)O` [ALPHA-KETOGLUTARIC ACID] gave a half-maximal inhibitory concentration (IC50) of 250 µM and a Ki of 83 µM.
In the case of `Cc1cn([C@H]2C[C@H](O)[C@@H](CO)O2)c(=O)nc1N`, the inhibition entry in the test with Naegleria is “inactive”.

These data come from ChEMBL document CHEMBL4715804, “A Fluorescence Polarization Biophysical Assay for the Naegleria DNA Hydroxylase Tet1” (ACS Med Chem Lett, 2016).
